One block for each molecule: values may come before it. Calls of active or inactive are those of the source. No cut-off for these calls is given here.
Columns and labels:
HEK293 [1] = assay: Selectivity ratio of EC50 for agonist activity at N-terminal FLAG tagged MC4-R (unknown origin) transiently transfected in HEK293 cells to EC50 for agonist activity at N-terminal FLAG tagged MC1-R (unknown origin) transiently transfected in HEK293 cells; assay type: cell-based
[2] = system: Melanocortin receptor 4 (Homo sapiens), P32245 [E100A]; assay: Agonist activity at N-terminal fused BRIL-Flag tagged human MC4-R E100A mutant transiently transfected in HEK293 cells assessed as fold change in cAMP accumulation by ELISA; assay type: cell-based; details: filed as agonist
[3] = system: Melanocortin receptor 4 (Homo sapiens), P32245 [D126A]; assay: Agonist activity at N-terminal fused BRIL-Flag tagged human MC4-R D126A mutant transiently transfected in HEK293 cells assessed as fold change in cAMP accumulation by ELISA; assay type: cell-based; details: filed as agonist
[4] = system: Melanocortin receptor 4 (Homo sapiens), P32245 [D122A]; assay: Agonist activity at N-terminal fused BRIL-Flag tagged human MC4-R D122A mutant transiently transfected in HEK293 cells assessed as fold change in cAMP accumulation by ELISA; assay type: functional, cell-based; details: filed as agonist
HEK293 [5] = assay: (§1) Selectivity ratio of IC50 for C-terminal HA-tagged human MC4-R stably expressed in HEK293 cells co-expressing GScAMP22P cAMP reporter assessed as inhibition of alpha-MSH induced cAMP production to IC50 for C-terminal HA-tagged human MC3-R stably expressed in HEK293 cells co-expressing GScAMP22P cAMP reporter assessed as inhibition of alpha-MSH induced cAMP production; assay type: cell-based
[6] = molecular target: T1, Melanocyte-stimulating hormone receptor (Homo sapiens, UniProt Q01726); assay: Partial agonist activity at C-terminal HA-tagged human MC1-R stably expressed in HEK293 cells co-expressing GScAMP22P cAMP reporter assessed as inhibition of alpha-MSH induced cAMP production by cell based luminescence assay relative to control; assay type: functional; parameters: concentration or dose not given beside the values; details: filed as partial agonist, concentration not given here
Target sequence in this assay (Q01726 whole entry, looked up): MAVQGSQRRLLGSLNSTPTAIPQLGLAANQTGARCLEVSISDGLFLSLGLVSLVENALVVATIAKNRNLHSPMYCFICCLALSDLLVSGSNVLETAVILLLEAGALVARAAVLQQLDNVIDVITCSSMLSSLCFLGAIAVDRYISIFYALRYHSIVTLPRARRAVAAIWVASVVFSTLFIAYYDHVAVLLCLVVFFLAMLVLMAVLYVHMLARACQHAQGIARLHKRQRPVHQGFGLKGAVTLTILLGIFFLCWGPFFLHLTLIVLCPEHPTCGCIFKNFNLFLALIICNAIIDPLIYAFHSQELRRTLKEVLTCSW

Melanocortin receptor 3 = Melanocortin receptor 3 (Homo sapiens, UniProt P41968); assay: Antagonist activity at C-terminal HA-tagged human MC3-R stably expressed in HEK293 cells co-expressing GScAMP22P cAMP reporter assessed as inhibition of alpha-MSH induced cAMP production by cell based luminescence assay; assay type: functional
HEK293 [7] = assay: as §1, with “MC1-R” for “MC3-R”; assay type: cell-based
Mus musculus [8] = assay: In vivo activation of Kir7.1 channel in cannulated C57BL/6J mouse assessed as increase in food intake at 500 pM,ICV administration and measured after 4 hrs; assay type: functional
[9] = molecular target: T1, Melanocyte-stimulating hormone receptor; assay: Partial agonist activity at C-terminal HA-tagged human MC1-R stably expressed in HEK293 cells co-expressing GScAMP22P cAMP reporter assessed as inhibition of alpha-MSH induced cAMP production by cell based luminescence assay; assay type: functional
Target sequence in this assay (Q01726 whole entry): as the sequence (Q01726 whole entry, looked up) above

Melanocortin receptor 4 [10] = molecular target: T2, Melanocortin receptor 4 (Homo sapiens, UniProt P32245); assay: Antagonist activity at C-terminal HA-tagged human MC4-R stably expressed in HEK293 cells co-expressing GScAMP22P cAMP reporter assessed as inhibition of alpha-MSH induced cAMP production by cell based luminescence assay; assay type: functional
Mus musculus [11] = assay: In vivo activation of Kir7.1 channel in cannulated C57BL/6J mouse assessed as increase in food intake at 500 pM,ICV administration and measured upto 24 hrs; assay type: functional
Melanocortin receptor 4 [12] = molecular target: T2, Melanocortin receptor 4; details: HEK293, filed as antagonist, time 1.0 hrs
HEK293 [13] = assay: Selectivity ratio of IC50 for C-terminal HA-tagged human MC1-R stably expressed in HEK293 cells co-expressing GScAMP22P cAMP reporter assessed as inhibition of alpha-MSH induced cAMP production to IC50 for C-terminal HA-tagged human MC4-R stably expressed in HEK293 cells co-expressing GScAMP22P cAMP reporter assessed as inhibition of alpha-MSH induced cAMP production; assay type: cell-based
Mus musculus [14] = assay: In vivo activation of Kir7.1 channel in cannulated C57BL/6J mouse assessed as increase in food intake at 500 pM,ICV administration for 7 days; assay type: functional; details: time 7.0 day
Mus musculus [15] = assay: In vivo activation of Kir7.1 channel in cannulated C57BL/6J mouse assessed as increase in food intake at 500 pM,ICV administration and measured after 6 hrs; assay type: functional
T-REx-293 = assay: Inhibition of Kir7.1 […] mutant (unknown origin) expressed in human T-REx-293 cells co-expressing human MC4-R assessed as decrease in K+ conductance at 10 uM incubated for 24 hrs by high-throughput automated patch clamp analysis; assay type: cell-based

T2 sequence (P32245 whole entry): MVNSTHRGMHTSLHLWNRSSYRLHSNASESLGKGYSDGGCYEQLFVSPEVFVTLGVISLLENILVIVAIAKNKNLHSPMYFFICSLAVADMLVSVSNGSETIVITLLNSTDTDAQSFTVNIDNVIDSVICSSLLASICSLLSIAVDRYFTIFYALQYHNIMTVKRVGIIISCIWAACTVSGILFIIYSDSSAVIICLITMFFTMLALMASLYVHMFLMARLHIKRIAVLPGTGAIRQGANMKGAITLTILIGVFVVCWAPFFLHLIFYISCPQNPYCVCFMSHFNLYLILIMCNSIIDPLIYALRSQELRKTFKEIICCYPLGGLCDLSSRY
Melanocortin receptor 3, sequence (P41968 whole entry): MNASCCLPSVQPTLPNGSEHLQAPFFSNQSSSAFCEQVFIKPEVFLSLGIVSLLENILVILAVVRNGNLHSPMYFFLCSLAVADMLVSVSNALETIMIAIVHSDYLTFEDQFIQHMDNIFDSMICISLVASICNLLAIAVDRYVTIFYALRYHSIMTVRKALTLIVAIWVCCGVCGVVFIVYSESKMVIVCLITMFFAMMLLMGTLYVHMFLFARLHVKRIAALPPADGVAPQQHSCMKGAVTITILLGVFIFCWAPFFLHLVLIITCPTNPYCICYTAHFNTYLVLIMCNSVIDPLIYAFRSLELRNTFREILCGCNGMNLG
Melanocortin receptor 4 (Homo sapiens), P32245 [E100A], sequence (P32245 whole entry E100A, the tested form may be a part): as the sequence (P32245 whole entry) above, with E100A counted along it
Melanocortin receptor 4 (Homo sapiens), P32245 [D126A], sequence (P32245 whole entry D126A, the tested form may be a part): as the sequence (P32245 whole entry) above, with D126A counted along it
Melanocortin receptor 4 (Homo sapiens), P32245 [D122A], sequence (P32245 whole entry D122A, the tested form may be a part): as the sequence (P32245 whole entry) above, with D122A counted along it

Compound: CC(=O)N[C@@H](CCCNC(=N)N)C(=O)N[C@H]1CSSC[C@@H](C(N)=O)NC(=O)[C@H](Cc2c[nH]c3ccccc23)NC(=O)[C@H](CCCNC(=N)N)NC(=O)[C@@H](Cc2ccccc2)NC(=O)[C@H](Cc2c[nH]cn2)NC(=O)[C@@H](C)NC1=O
Ratio EC50 (HEK293 [1]): 20
fold change (FC) [2]: 2
fold change (FC) [3]: 205
fold change (FC) [4]: 2

Compound: CCCC[C@H](NC(C)=O)C(=O)N[C@H]1CC(=O)NCCCC[C@@H](C(N)=O)NC(=O)CNC(=O)[C@H](Cc2c[nH]c3ccccc23)NC(=O)[C@H](CCCNC(=N)N)NC(=O)[C@@H](Cc2ccc3ccccc3c2)NC(=O)[C@@H]2C[C@H](n3cc(C(C)(C)N)nn3)CN2C1=O
Ratio IC50 (HEK293 [5]): 6.8
inhibition [6]: 83.8%
IC50 (Melanocortin receptor 3; read-out: IC50): 34.3 nM
Ratio IC50 (HEK293 [7]): 0.5
Activity (Mus musculus [8]): inactive
IC50 [9]: 2.53 nM
IC50 (Melanocortin receptor 4 [10]; read-out: IC50): 5.01 nM
Activity (Mus musculus [11]): inactive

Compound: CCCC[C@H](NC(C)=O)C(=O)N[C@H]1CC(=O)NCCCC[C@@H](C(N)=O)NC(=O)CNC(=O)[C@H](Cc2c[nH]c3ccccc23)NC(=O)[C@H](CCCNC(=N)N)NC(=O)[C@@H](Cc2ccc3ccccc3c2)NC(=O)[C@@H]2C[C@H](n3cc(-c4ccccn4)nn3)CN2C1=O
Ratio IC50 (HEK293 [5]): 4.5
inhibition [6]: 87.2%
IC50 (Melanocortin receptor 3; read-out: IC50): 31.5 nM
Ratio IC50 (HEK293 [7]): 30.1
IC50 [9]: 204 nM
IC50 (Melanocortin receptor 4 [10]; read-out: IC50): 6.78 nM

Compound: CCCCC(NC(C)=O)C(=O)N[C@H]1CC(=O)NCCCC[C@@H](C(N)=O)NC(=O)CNC(=O)[C@H](Cc2c[nH]c3ccccc23)NC(=O)[C@H](CCCNC(=N)N)NC(=O)[C@@H](Cc2ccc3ccccc3c2)NC(=O)[C@@H]2C[C@@H](n3cc(C(C)(C)N)nn3)CN2C1=O (stereo partly specified)
Ratio IC50 (HEK293 [5]): 16.7
inhibition [6]: 86.7%
Activity (Mus musculus [14]): Active
Activity (Mus musculus [15]): Active
Ratio IC50 (HEK293 [7]): 0.4

Compound: CCCCCCc1cn([C@H]2C[C@H]3C(=O)N[C@H](Cc4ccc5ccccc5c4)C(=O)N[C@@H](CCCNC(=N)N)C(=O)N[C@@H](Cc4c[nH]c5ccccc45)C(=O)NCC(=O)N[C@H](C(N)=O)CCCCNC(=O)C[C@H](NC(=O)[C@H](CCCC)NC(C)=O)C(=O)N3C2)nn1
Ratio IC50 (HEK293 [5]): 6
inhibition [6]: 83.5%
IC50 (Melanocortin receptor 3; read-out: IC50): 59.5 nM
Ratio IC50 (HEK293 [7]): 7
IC50 [9]: 68.9 nM
IC50 (Melanocortin receptor 4 [10]; read-out: IC50): 9.92 nM

Compound: CCCC[C@H](NC(C)=O)C(=O)N[C@H]1CC(=O)NCCCC[C@@H](C(N)=O)NC(=O)CNC(=O)[C@H](Cc2c[nH]c3ccccc23)NC(=O)[C@H](CCCNC(=N)N)NC(=O)[C@@H](Cc2ccc3ccccc3c2)NC(=O)[C@@H]2C[C@H](NC(=O)[C@@H](N)CCCN)CN2C1=O
Ratio IC50 (HEK293 [5]): 3
inhibition [6]: 85.1%
IC50 (Melanocortin receptor 3; read-out: IC50): 8.96 nM
Ratio IC50 (HEK293 [7]): 0.1
IC50 [9]: 0.25 nM
IC50 (Melanocortin receptor 4 [10]; read-out: IC50): 2.97 nM
Ratio IC50 (HEK293 [13]): 12

Continued, in another order:

Tm (Melanocortin receptor 4 [12]): 62.6 °C
Compound: CCCC[C@H](NC(C)=O)C(=O)N[C@H]1CC(=O)NCCCC[C@@H](C(N)=O)NC(=O)[C@@H](Cc2ccccc2)NC(=O)[C@H](CCCN=C(N)N)NC(=O)[C@@H](Cc2ccc3ccccc3c2)NC(=O)[C@@H]2CCCN2C1=O

inhibition [6]: 84.7%
IC50 (Melanocortin receptor 3; read-out: IC50): 26.4 nM
IC50 [9]: 53.6 nM
IC50 (Melanocortin receptor 4 [10]; read-out: IC50): 5.41 nM
Compound: CCCC[C@H](NC(C)=O)C(=O)N[C@H]1CC(=O)NCCCC[C@@H](C(N)=O)NC(=O)CNC(=O)[C@H](Cc2c[nH]c3ccccc23)NC(=O)[C@H](CCCNC(=N)N)NC(=O)[C@@H](Cc2ccc3ccccc3c2)NC(=O)[C@@H]2C[C@H](n3cc(-c4ccccc4)nn3)CN2C1=O
Ratio IC50 (HEK293 [5]): 4.9
Ratio IC50 (HEK293 [7]): 9.9

inhibition [6]: 80.7%
IC50 (Melanocortin receptor 3; read-out: IC50): 5.64 nM
IC50 [9]: 0.2 nM
IC50 (Melanocortin receptor 4 [10]; read-out: IC50): 2.83 nM
Compound: CCCC[C@H](NC(C)=O)C(=O)N[C@H]1CC(=O)NCCCC[C@@H](C(N)=O)NC(=O)CNC(=O)[C@H](Cc2c[nH]c3ccccc23)NC(=O)[C@H](CCCNC(=N)N)NC(=O)[C@@H](Cc2ccc3ccccc3c2)NC(=O)[C@@H]2C[C@H](NC(=O)[C@@H](N)CCC(=O)O)CN2C1=O
Ratio IC50 (HEK293 [5]): 2
Ratio IC50 (HEK293 [7]): 0.1
Ratio IC50 (HEK293 [13]): 14

inhibition [6]: 93.7%
IC50 (Melanocortin receptor 3; read-out: IC50): 9.3 nM
IC50 [9]: 10.5 nM
IC50 (Melanocortin receptor 4 [10]; read-out: IC50): 6.9 nM
IC50 (Melanocortin receptor 4 [10]; read-out: pIC50 (converted)): 5.89 nM
Compound: CCCC[C@H](NC(C)=O)C(=O)N[C@H]1CC(=O)NCCCC[C@@H](C(N)=O)NC(=O)CNC(=O)[C@H](Cc2c[nH]c3ccccc23)NC(=O)[C@H](CCCNC(=N)N)NC(=O)[C@@H](Cc2ccc3ccccc3c2)NC(=O)[C@@H]2C[C@H](NC(=O)CC3CCCCC3)CN2C1=O
Ratio IC50 (HEK293 [5]): 1.6
Ratio IC50 (HEK293 [7]): 1.8

inhibition [6]: 86.8%
IC50 [9]: 299 nM
Compound: CCCC[C@H](NC(C)=O)C(=O)N[C@H]1CC(=O)NCCCC[C@@H](C(N)=O)NC(=O)[C@H](CCCNC(=N)N)NC(=O)[C@H](Cc2c[nH]c3ccccc23)NC(=O)[C@H](CCCNC(=N)N)NC(=O)[C@@H](Cc2ccc3ccccc3c2)NC(=O)[C@@H]2CCCN2C1=O
inhibition (T-REx-293): Active

inhibition [6]: 86.4%
IC50 (Melanocortin receptor 3; read-out: IC50): 130 nM
IC50 [9]: 389 nM
IC50 (Melanocortin receptor 4 [10]; read-out: IC50): 18.8 nM
Compound: CCCC[C@H](NC(C)=O)C(=O)N[C@H]1CC(=O)NCCCC[C@@H](C(N)=O)NC(=O)CNC(=O)[C@H](Cc2c[nH]c3ccccc23)NC(=O)[C@H](CCCNC(=N)N)NC(=O)[C@@H](Cc2ccc3ccccc3c2)NC(=O)[C@@H]2C[C@H](n3cc(CCC(=O)O)nn3)CN2C1=O
Ratio IC50 (HEK293 [5]): 6.9
Ratio IC50 (HEK293 [7]): 20.8

inhibition [6]: 89.2%
IC50 (Melanocortin receptor 3; read-out: IC50): 5.08 nM
IC50 (Melanocortin receptor 3; read-out: pIC50 (converted)): 5.5 nM
IC50 [9]: 12 nM
Compound: CCCC[C@H](NC(C)=O)C(=O)N[C@H]1CC(=O)NCCCC[C@@H](C(N)=O)NC(=O)CNC(=O)[C@H](Cc2c[nH]c3ccccc23)NC(=O)[C@H](CCCN=C(N)N)NC(=O)[C@@H](Cc2ccc3ccccc3c2)NC(=O)[C@@H]2CCCN2C1=O
inhibition (T-REx-293): Active
